Measured values reported in patent publication US9505728B2, “Triazolone compounds and uses thereof” (INCEPTION 2, INC., priority 2012, dated 2016).

biological target: T1, Human PPARα (Homo sapiens, UniProt Q07869); assay: Human PPARα Reporter Assay (luciferase); format: cell-based; settings: human PPARα reporter cells, overnight incubation, antagonism; read-out: Luciferase IC50
T1 construct: host or cells: proprietary non-human mammalian cells
T1 sequence (Q07869 1-468): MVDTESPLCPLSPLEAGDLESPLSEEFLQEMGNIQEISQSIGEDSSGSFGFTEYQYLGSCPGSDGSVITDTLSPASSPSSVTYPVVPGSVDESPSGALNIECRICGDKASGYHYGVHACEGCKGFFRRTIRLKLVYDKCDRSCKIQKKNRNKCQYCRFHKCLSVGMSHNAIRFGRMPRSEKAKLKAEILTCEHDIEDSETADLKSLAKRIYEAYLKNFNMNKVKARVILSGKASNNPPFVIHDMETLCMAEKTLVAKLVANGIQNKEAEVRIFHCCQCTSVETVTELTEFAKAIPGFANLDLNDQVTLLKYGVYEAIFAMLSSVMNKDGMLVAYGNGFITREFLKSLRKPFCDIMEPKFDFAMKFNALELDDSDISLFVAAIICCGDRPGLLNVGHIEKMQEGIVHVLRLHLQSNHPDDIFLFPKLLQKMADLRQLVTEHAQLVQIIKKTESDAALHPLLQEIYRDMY
Method in brief: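 Agonist or antagonist activity read as luciferase light from engineered reporter cells carrying human PPARα and a responsive reporter gene. Cells got compound immediately on dispensing, incubated overnight, then treatment media swapped for luciferase detection reagent.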

| Compound | IC50 |
| --- | --- |
| CCn1c(CCCc2ccc(-c3cccc(CCC(=O)O)c3)cc2)nn(Cc2ccc(C(C)(C)C)cc2)c1=O [Example 36, 3-(4′-(3-(1-(4-(tert-Butyl)benzyl)-4-ethyl-5-oxo-4,5-dihydro-1H-1,2,4-triazol-3-yl)propyl)-[1,1′-biphenyl]-3-yl)propanoic acid] | 2760 nM |
| CCn1c(CCCc2ccc(-c3ccc(OC)c(NS(=O)(=O)c4ccc(C(F)(F)F)cc4)n3)cc2)nn(Cc2ccc(C(C)(C)C)cc2)c1=O [Example 88, 1-{[4-(tert-Butyl)phenyl]methyl}-4-ethyl-3-(3-{4-[5-methoxy-6-({[4-(trifluoromethyl)phenyl]sulfonyl}amino)(2-pyridyl)]phenyl}propyl)-1,2,4-triazolin-5-one] | 24 nM |
| CCn1c(CCCc2ccc(-c3ccc(OC)c(N)n3)cc2)nn(Cc2ccc(C(C)(C)C)cc2)c1=O [Example 58, 3-{3-[4-(6-Amino-5-methoxy(2-pyridyl))phenyl]propyl}-1-{[4-(tert-butyl)phenyl]methyl}-4-ethyl-1,2,4-triazolin-5-one] | 71 nM |
| CCn1c(CCCc2ccc(-c3csc(CC(=O)O)c3)cc2)nn(Cc2ccc(C(C)(C)C)cc2)c1=O [Example 39, 2-(4-(4-(3-(1-(4-(tert-Butyl)benzyl)-4-ethyl-5-oxo-4,5-dihydro-1H-1,2,4-triazol-3-yl)propyl)phenyl)thiophen-2-yl)acetic acid] | 707 nM |
| CCn1c(CCCc2ccc(-c3cccc(C(F)(F)C(=O)O)c3)cc2)nn(Cc2ccc(C(C)(C)C)cc2)c1=O [Example 28, 2-(4′-(3-(1-(4-(tert-Butyl)benzyl)-4-ethyl-5-oxo-4,5-dihydro-1H-1,2,4-triazol-3-yl)propyl)-[1,1′-biphenyl]-3-yl)-2,2-difluoroacetic acid] | 1980 nM |
| CCCc1ccc(S(=O)(=O)Nc2cccc(-c3ccc(CCCc4nn(Cc5ccc(C(C)(C)C)cc5)c(=O)n4CC)cc3)n2)cc1 [Example 72, 1-{[4-(tert-Butyl)phenyl]methyl}-4-ethyl-3-{3-[4-(6-{[(4-propylphenyl)sulfonyl]amino}(2-pyridyl))phenyl]propyl}-1,2,4-triazolin-5-one] | 208 nM |
| C=CCn1c(CCCc2ccc(-c3ccc(OC)c(CC(=O)O)c3)cc2)nn(Cc2ccc(C(C)(C)C)cc2)c1=O [Example 76, 2-(4′-(3-(4-Allyl-1-(4-(tert-butyl)benzyl)-5-oxo-4,5-dihydro-1H-1,2,4-triazol-3-yl)propyl)-4-methoxy-[1,1′-biphenyl]-3-yl)acetic acid] | 261 nM |
| CCn1c(CCCc2ccc(-c3cccc(CC(=O)O)c3)cc2)nn(Cc2ccc(C3CCCCC3)cc2)c1=O [Example 26, 2-(4′-(3-(1-(4-Cyclohexylbenzyl)-4-ethyl-5-oxo-4,5-dihydro-1H-1,2,4-triazol-3-yl)propyl)-[1,1′-biphenyl]-3-yl)acetic acid] | 4110 nM |
| CCn1c(CCCc2ccc(-c3cccc(C4CC4C(=O)O)c3)cc2)nn(Cc2ccc(C(C)(C)C)cc2)c1=O (stereo not drawn) [Example 35, 2-(4′-(3-(1-(4-(tert-Butyl)benzyl)-4-ethyl-5-oxo-4,5-dihydro-1H-1,2,4-triazol-3-yl)propyl)-[1,1′-biphenyl]-3-yl)cyclopropanecarboxylic acid] | 1120 nM |
| CCSc1ccc(-c2ccc(CCCc3nn(Cc4ccc(C(C)(C)C)cc4)c(=O)n3CC)cc2)cc1CC(=O)O [Example 61, 2-(5-{4-[3-(1-{[4-(tert-Butyl)phenyl]methyl}-4-ethyl-5-oxo(1,2,4-triazolin-3-yl))propyl]phenyl}-2-ethylthiophenyl)acetic acid] | 20 nM |
| CCn1c(CCCc2ccc(-c3ccc(NS(=O)(=O)c4ccc5c(c4)CCN5C(C)=O)cn3)cc2)nn(Cc2ccc(C(C)(C)C)cc2)c1=O [Example 75, 1-Acetyl-5-{[(6-{4-[3-(1-{[4-(tert-butyl)phenyl]methyl}-4-ethyl-5-oxo(1,2,4-triazolin-3-yl))propyl]phenyl}(3-pyridyl))amino]sulfonyl}indoline] | 207 nM |
| CCn1c(CCCc2ccc(-c3cccc(NS(=O)(=O)c4ccc(Cl)cc4)n3)cc2)nn(Cc2ccc(C(C)(C)C)cc2)c1=O [Example 83, 1-{[4-(tert-Butyl)phenyl]methyl}-3-{3-[4-(6-{[(4-chlorophenyl)sulfonyl]amino}(2-pyridyl))phenyl]propyl}-4-ethyl-1,2,4-triazolin-5-one] | 60 nM |
| CCn1c(CCCc2ccc(-c3cc(CC(=O)O)ccn3)cc2)nn(Cc2ccc(C(C)(C)C)cc2)c1=O [Example 45, 2-(2-{4-[3-(1-{[4-(tert-Butyl)phenyl]methyl}-4-ethyl-5-oxo-1,2,4-triazolin-3-yl)propyl]phenyl}-4-pyridyl)acetic acid] | 306 nM |
| CCn1c(CCCc2ccc(-c3cccc(-c4nnn[nH]4)c3)cc2)nn(Cc2ccc(C(C)(C)C)cc2)c1=O [Example 29, 3-(3-(3′-(1H-Tetrazol-5-yl)-[1,1′-biphenyl]-4-yl)propyl)-1-(4-(tert-butyl)benzyl)-4-ethyl-1H-1,2,4-triazol-5(4H)-one] | 1190 nM |

Other lines, results leading:

| IC50 | Compound |
| --- | --- |
| 362 nM | CCn1c(CCCc2ccc(-c3cccc(NC(=O)NCc4ccccc4)n3)cc2)nn(Cc2ccc(C(C)(C)C)cc2)c1=O [Example 155, 1-Benzyl-3-(6-(4-(3-(1-(4-(tert-butyl)benzyl)-4-ethyl-5-oxo-4,5-dihydro-1H-1,2,4-triazol-3-yl)propyl)phenyl)pyridin-2yl)urea] |
| 524 nM | CCn1c(CCCc2ccc(-c3ccc(S(=O)(=O)NCc4ccccc4)cc3)cc2)nn(Cc2ccc(C(C)(C)C)cc2)c1=O [Example 99, N-benzyl-4′-(3-(1-(4-(tert-butyl)benzyl)-4-ethyl-5-oxo-4,5-dihydro-1H-1,2,4-triazol-3-yl)propyl)-[1,1′-biphenyl]-4-sulfonamide] |
| 161 nM | CCn1c(CCCc2ccc(-c3ccc(C)c(N)c3)cc2)nn(Cc2ccc(C(C)(C)C)cc2)c1=O [Example 149, 3-(3-(3′-Amino-4′-methyl-[1,1′-biphenyl]-4-yl)propyl)-1-(4-(tert-butyl)benzyl)-4-ethyl-1H-1,2,4-triazol-5(4H)-one] |
| 165 nM | CCn1c(CCCc2ccc(-c3ncc(NS(=O)(=O)c4ccccc4)cn3)cc2)nn(Cc2ccc(C(C)(C)C)cc2)c1=O [Example 108, N-(2-(4-(3-(1-(4-(tert-Butyl)benzyl)-4-ethyl-5-oxo-4,5-dihydro-1H-1,2,4-triazol-3-yl)propyl)phenyl)pyrimidin-5-yl)benzenesulfonamide] |
| 110 nM | CCn1c(CCC(F)(F)c2ccc(-c3ccc(C4(O)COC4)cc3)cc2)nn(Cc2ccc(C(C)(C)C)cc2)c1=O [Example 196, 1-(4-(tert-Butyl)benzyl)-3-(3,3-difluoro-3-(4′-(3-hydroxyoxetan-3-yl)-[1,1′-biphenyl]-4-yl)propyl)-4-ethyl-1H-1,2,4-triazol-5(4H)-one] |
| 91 nM | CCn1c(CCCc2ccc(-c3ccc(C4(F)COC4)nc3)cc2)nn(Cc2ccc(C(C)(C)C)cc2)c1=O [Example 166, 1-(4-(tert-Butyl)benzyl)-4-ethyl-3-(3-(4-(6-(3-fluorooxetan-3-yl)pyridine-3-yl)phenyl)propyl)-1H-1,2,4-triazol-5(4H)-one] |
| 121 nM | CCn1c(CCCc2ccc(-c3ccc(OC)c(CCC(=O)O)c3)cc2)nn(Cc2ccc(C(C)(C)C)cc2)c1=O [Example 179, 3-(5-{4-[3-(1-{[4-(tert-Butyl)phenyl]methyl}-4-ethyl-5-oxo(1,2,4-triazolin-3-yl))propyl]phenyl}-2-methoxyphenyl)propanoic acid] |
| 873 nM | CCn1c(CCCc2ccc(-c3csc(C4(O)COC4)n3)cc2)nn(Cc2ccc(C(C)(C)C)cc2)c1=O [Example 203, 1-(4-(tert-Butyl)benzyl)-4-ethyl-3-(3-(4-(2-(3-hydroxyoxetan-3-yl)thiazol-4-yl)phenyl)propyl)-1H-1,2,4-triazol-5(4H)-one] |
| 78 nM | CCn1c(CCCc2ccc(-c3ccc(C4(O)CCC4)cc3)cc2)nn(Cc2ccc(C(C)(C)C)cc2)c1=O [Example 176, 1-(4-(tert-Butyl)benzyl)-4-ethyl-3-(3-(4′-(1-hydroxycyclobutyl)-[1,1′-biphenyl]-4-yl)propyl)-1H-1,2,4-triazol-5(4H)-one] |
| 430 nM | CCn1c(CCCc2ccc(-c3ccc(OC)c(CNS(=O)(=O)Cc4ccccc4)c3)cc2)nn(Cc2ccc(C(C)(C)C)cc2)c1=O [Example 188, 1-{[4-(tert-Butyl)phenyl]methyl}-4-ethyl-3-(3-{4-[4-methoxy-3-({[benzylsulfonyl]amino}methyl)phenyl]phenyl}propyl)-1,2,4-triazolin-5-one] |
| 26 nM | COc1ccc(-c2ccc(CCCc3nn(Cc4ccc(C(C)(C)C)cc4)c(=O)n3C)cc2)cc1CC(=O)O [Example 106, 2-(4′-(3-(1-(4-(tert-Butyl)benzyl)-4-methyl-5-oxo-4,5-dihydro-1H-1,2,4-triazol-3-yl)propyl)-4-methoxy-[1,1′-biphenyl]-3-yl)acetic acid] |
| 41 nM | CCn1c(CCCc2ccc(-c3ccc(C4(F)COC4)cn3)cc2)nn(Cc2ccc(C(C)(C)C)cc2)c1=O [Example 191, 1-(4-(tert-Butyl)benzyl)-4-ethyl-3-(3-(4-(5-(3-fluorooxetan-3-yl)pyridine-2-yl)phenyl)propyl)-1H-1,2,4-triazol-5(4H)-one] |
| 85 nM | CCn1c(CCCc2ccc(-c3ccc(OC)c(N)c3)cc2)nn(Cc2ccc(C(C)(C)C)cc2)c1=O [Example 147, 3-(3-(3′-Amino-4′-methoxy-[1,1′-biphenyl]-4-yl)propyl)-1-(4-(tert-butyl)benzyl)-4-ethyl-1H-1,2,4-triazol-5(4H)-one] |
